Legend:
[1] = tested on: feline infectious peritonitis virus; test: Clinical survival of cats with clinically confirmed FIP, treatment group vs control group (Example 2); type: in vivo, cat; conditions: 7 treated vs 8 control cats with FIP; GS-441524 pre-treatment 3 days; 2.0 mg/kg SC q24h D1-D14; death or neurological symptoms = clinical death; 14 days
From the text: A total of 15 cats with clinically confirmed FIP were enrolled, with hydrothorax/ascites, positive CT value by PCR, and no neurological symptoms. 8 cats were allocated into the control group, and 7 cats were allocated into the treatment group.
The groups were pre-treated with GS-441524 for 3 days. For the control group, necessary supportive treatment was given on D1—D14.
The occurrence of death or neurological symptoms was judged as clinical death, and the clinical survival curve was plotted after 14 days.
The Log Rank (Mantel-Cox) and Breslow (Generalized Wilcoxon) methods were used for validity test, and both methods indicated a significant difference (P<0.05). The above description is only for the purpose of illustrating the preferred example of the present invention, and is not intended to limit the scope of the present invention. Any modifications, equivalents and the like made without departing from the spirit and principle of the present invention should be included in the protection scope of the present invention.

[2] = tested on: feline coronavirus; test: Treatment of a cat with recurrent wet FIP (Example 1): daily clinical observation, body weight, chest X-ray; type: in vivo; conditions: for body weight: 2.5 kg at enrollment (D0)
Description: A female British shorthair cat (Lele) of 2.5 kg, aged 8 month, unneutered. The cat had symptoms of increased body temperature, mental depression, decreased appetite, and increased abdominal girth in January, 2020. After 1 week, the cat was admitted. On January 18, the cat was diagnosed with feline infectious peritonitis (FIP) positive. After being treated with GS-441524 for 3 days, the cat was then administered with furosemide, Synulox®, prednisolone and itraconazole (P.O., q24h, 10 mg/kg) for 1 month. The drugs were discontinued after ascites regressed. Early in April, the disease recurred, showing decreased food intake and listlessness. […] The cat was enrolled on April 8, and was treated with the drug of the present invention at 2.0 mg/kg (SC, q24h) on days 1-14 (D1-14). Proper supportive treatments were given at the same time, including adjuvant treatment such as Moringa (a hepatoprotective drug), Lysinphirst (lysine) and Doctor Dolittle® (lactoferrin).
The pharmaceutically active compound described above is a pure powder have the following structure. The compound was added to a 0.9% normal saline (50 mL of endotoxin-free water and 0.45 g of NaCl), and the mixture was uniformly mixed and filtered through a filter membrane to give a clarified solution. The diluted compound was stored in a plastic-sealed sterile vial, stored in a refrigerator at 4° C., slowly heated to room temperature before injection, and administered using a disposable syringe. The injection ranged across the back, starting from 2 cm posterior to the scapula to the middle of the lumbar spine, half of the distance of the adjacent chest to flank.
The treatment was given by injection in the morning every day. […]
The hydrothorax completely regressed since about 7 days after the treatment. The body weight increased by 9% during and after the treatment.

[3] = D1, cat with FIP, 2.0 mg/kg SC q24h
[4] = D2, cat with FIP, 2.0 mg/kg SC q24h
[5] = D3, cat with FIP, 2.0 mg/kg SC q24h
[6] = D4, cat with FIP, 2.0 mg/kg SC q24h
[7] = D5, cat with FIP, 2.0 mg/kg SC q24h
[8] = D6, cat with FIP, 2.0 mg/kg SC q24h
[9] = D7, cat with FIP, 2.0 mg/kg SC q24h
[10] = D8, cat with FIP, 2.0 mg/kg SC q24h
[11] = D9, cat with FIP, 2.0 mg/kg SC q24h
[12] = D10, cat with FIP, 2.0 mg/kg SC q24h
[13] = D11, cat with FIP, 2.0 mg/kg SC q24h
[14] = D12, cat with FIP, 2.0 mg/kg SC q24h
[15] = D13, cat with FIP, 2.0 mg/kg SC q24h
[16] = D14, cat with FIP, 2.0 mg/kg SC q24h

## CN1CCC(c2ncc(-c3cnc(N)c(OCc4cccc(C#CC(C)(C)O)c4)c3)s2)CC1 [the drug of the present invention, 4-(3-(((2-amino-5-(2-(1-methylpiperidin-4-yl)thiazol-5-yl)pyridin-3-yl)oxy)methyl)phenyl)-2-methylbut-3-yn-2-ol]
[1]
  clinical survival vs control group, P (Log Rank (Mantel-Cox) and Breslow (Generalized Wilcoxon)): < 0.05
[2]; [3]
  Body temperature Afternoon: 38.6 °C
  Defecation condition: Normal
  Respiratory state: Normal
[2]; [4]
  Body temperature Afternoon: 38.1 °C
  Defecation condition: Normal
  Respiratory state: Normal
[2]; D2, cat with FIP, 2.0 mg/kg SC q24h, D0 Decreased intake - 3
  Food intake: Improved - 4
[2]; D2, cat with FIP, 2.0 mg/kg SC q24h, D0 Listless - 3
  Mental state: Improved - 4
[2]; [5]
  Body temperature Afternoon: 38 °C
  Defecation condition: Normal
  Respiratory state: Normal
[2]; D3, cat with FIP, 2.0 mg/kg SC q24h, D0 Decreased intake - 3
  Food intake: Good - 5
[2]; D3, cat with FIP, 2.0 mg/kg SC q24h, D0 Listless - 3
  Mental state: Good - 5
[2]; [6]
  Body temperature Afternoon: 38.3 °C
  Defecation condition: Normal
  Food intake: Good
  Mental state: Good
  Respiratory state: Normal
[2]; [7]
  Body temperature Afternoon: 38.3 °C
  Defecation condition: Normal
  Food intake: Good
  Mental state: Good
  Respiratory state: Normal
[2]; [8]
  Body temperature Afternoon: 38.3 °C
  Defecation condition: Normal
  Food intake: Good
  Mental state: Good
  Respiratory state: Normal
[2]; [9]
  Body temperature Afternoon: 38.1 °C
  Defecation condition: Normal
  Food intake: Good
  Mental state: Good
  Respiratory state: Normal
  body weight: 2.75 kg
[2]; [10]
  Body temperature Afternoon: 38 °C
  Defecation condition: Normal
  Food intake: Good
  Mental state: Good
  Respiratory state: Normal
[2]; [11]
  Body temperature Afternoon: 38.2 °C
  Defecation condition: Normal
  Food intake: Good
  Mental state: Good
  Respiratory state: Normal
[2]; [12]
  Body temperature Afternoon: 38.3 °C
  Defecation condition: Normal
  Food intake: Good
  Mental state: Good
  Respiratory state: Normal
[2]; [13]
  Body temperature Afternoon: 38.4 °C
  Defecation condition: Normal
  Food intake: Good
  Mental state: Good
  Respiratory state: Normal
[2]; [14]
  Body temperature Afternoon: 38.5 °C
  Defecation condition: Normal
  Food intake: Good
  Mental state: Good
  Respiratory state: Normal
[2]; [15]
  Body temperature Afternoon: 38.5 °C
  Body temperature Morning: 38.9 °C
  Defecation condition: Normal
  Food intake: Good
  Mental state: Good
  Respiratory state: Normal
[2]; [16]
  Body temperature Afternoon: 38.4 °C
  Body temperature Morning: 38.4 °C
  Defecation condition: Normal
  Food intake: Good
  Mental state: Good
  Respiratory state: Normal
  body weight: 2.75 kg
[2]; after 2 weeks of treatment, cat with FIP, 2.0 mg/kg SC q24h
  clinical response (appetite, mental state, weight): remarkable clinical response
[2]; cat with FIP, 2.0 mg/kg SC q24h D1-14
  body weight increase during and after the treatment: 9%
[2]; cat with FIP, no fever at enrollment, 2.0 mg/kg SC q24h D1-14
  body temperature maintained throughout the treatment: 38-38.5 °C
[2]; cat with wet FIP (chest), 2.0 mg/kg SC q24h, chest X-ray
  time after which the hydrothorax completely regressed: about 7 days

Reference: patent US20230097009A1, “USE OF COMPOUND IN PREVENTION AND/OR TREATMENT OF PATHOGEN INFECTION IN ANIMALS” (FELICAMED BIOTECHNOLOGY CO., LTD., priority 2020, published 2023)
